Measured values from patent US10933075B2, “Materials and methods for suppressing and/or treating bacterial infections and related symptoms” (Indiana University Research and Technology Corporation, priority 2017, dated 2021).

Tests used:
S. aureus USA300 = assay: Murine model of peritoneal infection (survival, anti-virulence effect); type: in vivo, mice; conditions: for anti-virulence effect: mice i.p. infected with S. aureus USA300, 50 μg i.p. once every day for 7 days, from one hour post infection; for in vivo efficacy, dose dependence: administered after infection for 7 days (FIG. 7); for anti-virulence activity against S. aureus infection in mice (percent survival): S. aureus 2×10^8 CFU i.p., n=10-18 (FIGS. 4-6); for anti-virulence effect, confirmation by repeating the mouse experiment: repeat of the mouse experiment
Method: FIG. 4. Effect of Streptozotocin on survival. […] Open circles represent percent survival of treated mice (i.e., steptozotocin) after the indicated period. Closed circles represent percent survival of untreated mice (i.e., control). S. aureus (2×10^8 CFU) were i.p. injected into mice (n=10-18).
In this model, mice were i.p. infected with S. aureus USA300. One hour post infection, the test compounds were administered via i.p. injection once every day for 7 days.
To determine the minimal dosage of the compounds for their protective effect, a different amount of the compounds (0-100 μg) were administered after S. aureus infection for 7 days as described above.
The biological half-life of streptozotocin is about 35-40 min. […] Although we administered the compounds every day for 7 days, due to their short half-lives, it is likely that S. aureus cells were exposed to the compounds only briefly. […] To examine the hypothesis, after 2 h post infection with S. aureus, we administered the compounds only once (25 μg for streptozotocin and floxuridine; 50 μg for doxorubicin) and watched the infected mice for 7 days.

[1] = in vivo; cited from earlier work
[2] = tested on: SaeRS two component system (P1 promoter); assay: pYJ-P1-GFP reporter, Sae activity (P1 promoter activity); type: cell-based, S. aureus strain USA300; conditions: grown in TSB for 3 h, various concentrations (FIG. 3B)
Method: FIG. 3B. Graph illustrating the effect of three compounds on Sae activity of Staphylococcus aureus. Cells were grown in TSB for 3 hours in the presence of the compounds (e.g., Streptozotocin, Floxuridine, and Doxorubicin) using various concentrations as indicated. The P1 promoter has two SaeR binding sites and its activity is an excellent indicator for the Sae activity.
The sae operon consists of four genes (saeP, saeQ, saeR, and saeS), and the two promoters P1 and P3. The P1 promoter resides in the front of the very first gene saeP and can transcribe all four genes. The P1 promoter has two SaeR binding sequences (SBSs). The P1 promoter in front of the sae operon is well characterized target of the SaeRS two component system. Here, the reporter plasmid pYJ-P1-GFP was used in the library screening and the expression level of GFP was interpreted as the Sae activity.
(§1) In the library screening, S. aureus strain USA300 was grown with pYJ-P1-GFP in the presence of 10 μM test compound for 3 hours. Then the effects of the each drug on growth and GFP expression were measured. In the primary screening, about 9,000 test compounds (3,000 FDA-approved drugs, 6,000 DCL library compounds) were tested.
(§2) Referring now to FIGS. 3A and 3B, the effects of the three compounds on growth (A) and Sae activity (B) of Staphylococcus aureus were measured. The cells were grown in TSB for 3 h in the presence of the compounds with various concentrations as indicated.

Staphylococcus aureus = assay: Effect on growth of Staphylococcus aureus; type: cell-based; conditions: grown in TSB for 3 h, various concentrations (FIG. 3A)
Method: FIG. 3A. Graph illustrating the effect of three compounds on growth of Staphylococcus aureus. Cells were grown in TSB for 3 hours in the presence of the compounds (e.g., Streptozotocin, Floxuridine, and Doxorubicin) using various concentrations as indicated.
as §1, §2

[3] = tested on: Agr quorum sensing system, Arl two-component system, SarA DNA binding protein; assay: qRT-PCR of agrC, arlS, sarA transcription normalized by gyrB; type: cell-based, S. aureus USA300; conditions: 1 μg/mL (=3.8 μM for streptozotocin, 4 μM for floxuridine), 3 h (FIG. 9)
Method: FIG. 9. Streptozotocin (SZ) and floxuridine (FU) repress other signalling systems critical for staphylococcal virulence. The transcription level of the indicated genes was analyzed by qRT-PCR and normalized by the transcription level of gyrB. agrC, the gene of the sensor kinase of the Agr quorum sensing system; arlS, the gene of the sensor kinase of the Arl two componenet system; sarA, the gene of the DNA binding protein SarA; NT, no treatment.
The virulence of S. aureus is thought to be controlled by multiple signaling systems. Along with the Sae signaling system, the Agr quorum sensing system, Arl two-component system, and SarA DNA binding protein are known to contribute to staphylococcal virulence. To explain the high in vivo efficacy of streptozotocin and floxuridine, S. aureus USA300 was treated with 1 μg/mL (=3.8 μM for streptozotocin, 4 μM for floxuridine) for 3 h, purified total RNA and carried out qRT-PCR.

O=C1OC2(c3ccccc31)c1cc(I)c(O)c(I)c1Oc1c2cc(I)c(O)c1I [Erythrosine sodium]
anti-virulence effect (S. aureus USA300): anti-virulence effect

O=c1[nH]c(=O)n([C@H]2C[C@H](O)[C@@H](CO)O2)cc1F [Floxuridine]
catabolism [1]: rapidly catabolized to 5′fluorouracil | Sae activity (P1 promoter activity) [2]: reduced P1 promoter activity | in vivo efficacy, dose dependence (S. aureus USA300; 10 μg): statistically significant in vivo efficacy | anti-virulence activity against S. aureus infection in mice (percent survival) (S. aureus USA300): exhibited anti-virulence activity | anti-virulence effect (S. aureus USA300): anti-virulence effect | anti-virulence effect, confirmation by repeating the mouse experiment (S. aureus USA300): significant anti-virulence effect | growth of Staphylococcus aureus (Staphylococcus aureus): reduced growth | transcription level of agrC, arlS, sarA (signaling systems critical for virulence) [3]: inhibit multiple signaling systems

O=c1[nH]cc(F)c(=O)[nH]1 [5-FU, 5′fluorouracil]
half-life [1]: 8 to 14 min

CC(=O)[C@H]1CC[C@H]2[C@@H]3CC=C4C[C@@H](OC(=O)CCC(=O)O)CC[C@]4(C)[C@H]3CC[C@]12C [Pregnenolone succinate]
anti-virulence effect (S. aureus USA300): anti-virulence effect

COc1cccc2c1C(=O)c1c(O)c3c(c(O)c1C2=O)C[C@@](O)(C(=O)CO)C[C@@H]3O[C@H]1C[C@H](N)[C@H](O)[C@H](C)O1 [Doxorubicin]
Sae activity (P1 promoter activity) [2]: reduced P1 promoter activity | anti-virulence activity against S. aureus infection in mice (percent survival) (S. aureus USA300): exhibited anti-virulence activity | anti-virulence effect (S. aureus USA300): anti-virulence effect | anti-virulence effect, confirmation by repeating the mouse experiment (S. aureus USA300): significant anti-virulence effect | growth of Staphylococcus aureus (Staphylococcus aureus): reduced growth

CN(N=O)C(=O)NC1C(O)[C@H](O)C(CO)O[C@H]1O (stereo partly shown) [Streptozotocin]
biological half-life [1]: 35-40 min | Sae activity (P1 promoter activity) [2]: reduced P1 promoter activity | in vivo efficacy, dose dependence (S. aureus USA300; 5 μg): statistically significant in vivo efficacy | in vivo efficacy, dose dependence (S. aureus USA300; 10-100 μg): comparable in vivo efficacy | anti-virulence activity against S. aureus infection in mice (percent survival) (S. aureus USA300): exhibited anti-virulence activity | anti-virulence effect (S. aureus USA300): anti-virulence effect | anti-virulence effect, confirmation by repeating the mouse experiment (S. aureus USA300): significant anti-virulence effect | growth of Staphylococcus aureus (Staphylococcus aureus): reduced growth | transcription level of agrC, arlS, sarA (signaling systems critical for virulence) [3]: inhibit multiple signaling systems
